Measurements: ChEMBL document CHEMBL4346715, “Antibacterial activity study of 1,2,4-triazole derivatives” (Eur J Med Chem, 2019)

Key:
Bacillus cereus = test: Antibacterial activity against Bacillus cereus ATCC 10876 after 24 hrs by microdilution method; format: functional; conditions: ATCC 10876, 24 h
Enterococcus faecalis = test: Antibacterial activity against Enterococcus faecalis ATCC 29212 after 24 hrs by microdilution method; format: functional; conditions: ATCC 29212, 24 h
Staphylococcus aureus [1] = test: Antibacterial activity against Staphylococcus aureus ATCC 25923 after 24 hrs by microdilution method; format: functional; conditions: ATCC 25923, 24 h
Proteus mirabilis = test: Antibacterial activity against Proteus mirabilis ATCC 35659 after 24 hrs by microdilution method; format: functional; conditions: ATCC 35659, 24 h
Escherichia coli [2] = test: Antibacterial activity against Escherichia coli ATCC 25922 after 24 hrs by microdilution method; format: functional; conditions: ATCC 25922, 24 h
Pseudomonas aeruginosa [3] = test: Antibacterial activity against Pseudomonas aeruginosa ATCC 27853 after 24 hrs by microdilution method; format: functional; conditions: ATCC 27853, 24 h
Candida albicans [4] = test: Antifungal activity against Candida albicans ATCC 50193 after 24 hrs by microdilution method; format: functional; conditions: ATCC 50193, 24 h
Aspergillus brasiliensis = test: Antifungal activity against Aspergillus brasiliensis ATCC 16404 after 24 hrs by microdilution method; format: functional; conditions: ATCC 16404, 24 h
Listeria monocytogenes = test: Antibacterial activity against Listeria monocytogenes ATCC 35152 after 24 hrs by broth microdilution method; format: functional; conditions: ATCC 35152, 24 h
Staphylococcus aureus [5] = test: Antibacterial activity against Staphylococcus aureus ATCC 49444 after 24 hrs by broth microdilution method; format: functional; conditions: ATCC 49444, 24 h
Pseudomonas aeruginosa [6] = test: Antibacterial activity against Pseudomonas aeruginosa ATCC 27853 after 24 hrs by broth microdilution method; format: functional; conditions: ATCC 27853, 24 h
Salmonella typhimurium = test: Antibacterial activity against Salmonella typhimurium ATCC 14028 after 24 hrs by broth microdilution method; format: functional, Salmonella enterica subsp. enterica serovar Typhimurium; conditions: Salmonella enterica, ATCC 14028, 24 h
Escherichia coli [7] = test: Antibacterial activity against Escherichia coli after 24 hrs by broth microdilution method; format: functional
Escherichia coli [8] = test: Antibacterial activity against Escherichia coli; format: functional
Staphylococcus aureus [9] = test: Antibacterial activity against Staphylococcus aureus; format: functional
Streptococcus pneumoniae = test: Antibacterial activity against Streptococcus pneumoniae; format: functional
Bacillus subtilis = test: Antibacterial activity against Bacillus subtilis; format: functional
Clostridium tetani = test: Antibacterial activity against Clostridium tetani; format: functional
Candida albicans [10] = test: Antifungal activity against Candida albicans; format: functional
Aspergillus niger = test: Antifungal activity against Aspergillus niger; format: functional
Pseudomonas aeruginosa [11] = test: Antibacterial activity against Pseudomonas aeruginosa; format: functional
Escherichia coli [12] = test: Antibacterial activity against Escherichia coli incubated for 18 hrs post 30 mins pre-diffusion by disk diffusion method; format: functional
Staphylococcus aureus [13] = test: Antibacterial activity against Staphylococcus aureus incubated for 18 hrs post 30 mins pre-diffusion by disk diffusion method; format: functional

Measured: MIC

CCCCCCCCCCn1nnc(-c2n[nH]c(=S)n2-c2ccccc2)c1-c1n[nH]c(=S)n1-c1ccccc1
1 to 128 µg/mL: Bacillus cereus | Enterococcus faecalis | Staphylococcus aureus [1] | Proteus mirabilis | Escherichia coli [2] | Pseudomonas aeruginosa [3] | Candida albicans [4] | Aspergillus brasiliensis

Cc1nc(-c2ccccc2)sc1-c1nnc(S)n1/N=C/c1ccc(Cl)cc1Cl
1.95 to 62.5 µg/mL: Listeria monocytogenes | Staphylococcus aureus [5] | Pseudomonas aeruginosa [6] | Salmonella typhimurium | Escherichia coli [7]

COc1ccc(-c2cc(-c3c(C)nn(-c4ccccc4)c3-n3cncn3)n3c(n2)nc2ccccc23)cc1
62.5 to 250 µg/mL: Escherichia coli [8] | Staphylococcus aureus [9] | Streptococcus pneumoniae | Bacillus subtilis | Clostridium tetani

Sc1nnc(-c2ccncc2)n1/N=C/c1ccc(Br)cc1
10.2 to 162 µg/mL: Escherichia coli [8] | Staphylococcus aureus [9] | Bacillus subtilis | Candida albicans [10] | Aspergillus niger | Pseudomonas aeruginosa [11]

Cc1nn(-c2ccccc2)c(-n2cncn2)c1-c1cc(-c2ccc(-c3cccs3)cc2)nc2nc3ccccc3n12
62.5 to 250 µg/mL: Escherichia coli [8] | Staphylococcus aureus [9] | Streptococcus pneumoniae | Bacillus subtilis | Clostridium tetani

Cc1nn(-c2ccccc2)c(-n2cncn2)c1-c1cc(-c2ccc(-c3cc[nH]c3)cc2)nc2nc3ccccc3n12
62.5 to 250 µg/mL: Escherichia coli [8] | Staphylococcus aureus [9] | Streptococcus pneumoniae | Bacillus subtilis | Clostridium tetani

O=[N+]([O-])c1ccc(/C=N/n2c(S)nnc2-c2ccncc2)cc1
10.2 to 162 µg/mL: Escherichia coli [8] | Staphylococcus aureus [9] | Bacillus subtilis | Candida albicans [10] | Aspergillus niger | Pseudomonas aeruginosa [11]

Fc1cc(F)cc(-c2nnc(Sc3cc(Cl)nc(Sc4ccccc4)n3)[nH]2)c1
1.6 to 250 µg/mL: Escherichia coli [12] | Staphylococcus aureus [13]

CSc1nc(Cl)cc(Sc2nnc(-c3cccc(F)c3)[nH]2)n1
1.6 to 250 µg/mL: Escherichia coli [12] | Staphylococcus aureus [13]

Cc1nc(-c2ccccc2)sc1-c1nnc(S)n1/N=C/c1c(Cl)cccc1Cl
1.95 to 62.5 µg/mL: Listeria monocytogenes | Staphylococcus aureus [5] | Pseudomonas aeruginosa [6] | Salmonella typhimurium | Escherichia coli [7]

Cc1nc(-c2ccccc2)sc1-c1nnc(S)n1/N=C/c1cccc(O)c1
1.95 to 62.5 µg/mL: Listeria monocytogenes | Staphylococcus aureus [5] | Pseudomonas aeruginosa [6] | Salmonella typhimurium | Escherichia coli [7]

COc1cc(OC)cc(-c2nnc(Sc3cc(Cl)nc(SC)n3)[nH]2)c1
1.6 to 250 µg/mL: Escherichia coli [12] | Staphylococcus aureus [13]
